Laboratory results reported in PubChem BioAssay (NCI).
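All cell lines were grown in 96-well plates and treated with compound for 48 hours. GI50: concentration for 50% inhibition of growth. TGI is the concentration that stops growth completely.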

Key:
Experiment in all cases: NCI tumour cell line growth inhibition, 48 h
[1] = tested on: SF-268 CNS
[2] = tested on: DU-145 prostate
[3] = tested on: MALME-3M melanoma
[4] = tested on: BT-549 breast
[5] = tested on: MDA-MB-435
[6] = tested on: CCRF-CEM leukemia
[7] = tested on: UO-31 renal
[8] = tested on: LOX IMVI melanoma
[9] = tested on: MOLT-4 leukemia
[10] = tested on: OVCAR-4 ovarian
[11] = tested on: HS 578T breast
[12] = tested on: 786-0 renal
[13] = tested on: SNB-19 CNS
[14] = tested on: OVCAR-8 ovarian
[15] = tested on: ACHN renal
[16] = tested on: COLO 205 colon
[17] = tested on: SK-MEL-28 melanoma
[18] = tested on: M14 melanoma
[19] = tested on: SW-620 colon
[20] = tested on: EKVX NSCLC
[21] = tested on: KM12 colon
[22] = tested on: SF-539 CNS
[23] = tested on: NCI-H460 lung
[24] = tested on: MCF7 breast
[25] = tested on: SK-OV-3 ovarian
[26] = tested on: SR leukemia
[27] = tested on: PC-3 prostate
[28] = tested on: RPMI-8226 leukemia
[29] = tested on: SK-MEL-5 melanoma
[30] = tested on: HCC-2998 colon
[31] = tested on: HCT-15 colon
[32] = tested on: SF-295 CNS
[33] = tested on: OVCAR-3 ovarian
[34] = tested on: HL-60(TB) leukemia
[35] = tested on: TK-10 renal
[36] = tested on: NCI/ADR-RES ovarian
[37] = tested on: HCT-116 colon
[38] = tested on: K-562 leukemia
[39] = tested on: HOP-92 NSCLC
[40] = tested on: IGROV1 ovarian
[41] = tested on: MDA-MB-231 breast
[42] = tested on: CAKI-1 renal
[43] = tested on: RXF 393 renal
[44] = tested on: HT29 colon
[45] = tested on: UACC-257 melanoma
[46] = tested on: NCI-H23 lung
[47] = tested on: UACC-62 melanoma
[48] = tested on: A498 renal
[49] = tested on: T-47D breast
[50] = tested on: SK-MEL-2 melanoma
[51] = tested on: SNB-75 CNS
[52] = tested on: OVCAR-5 ovarian
[53] = tested on: HOP-62 NSCLC
[54] = tested on: A549 NSCLC
[55] = tested on: NCI-H226 lung
[56] = tested on: NCI-H522 lung
[57] = tested on: SN12C renal
[58] = tested on: U251 CNS

For Cn1c(-c2cccc(N)c2)[n+](C)c2ccccc21, the TGI [1] was > 100 µM, the TGI [2] was > 100 µM and the TGI [3] was > 100 µM. For the same molecule, the TGI [4] was > 100 µM, the TGI [5] was > 100 µM and the TGI [6] was > 100 µM. For the same molecule, the TGI [7] was > 100 µM, the TGI [8] was > 100 µM and the TGI [9] was > 100 µM. For the same molecule, the TGI [10] was > 100 µM, the TGI [11] was > 100 µM and the TGI [12] was > 100 µM. The TGI [13] was > 100 µM, the TGI [14] was > 100 µM and the TGI [15] was > 100 µM. The TGI [16] was > 100 µM, the TGI [17] was > 100 µM and the TGI [18] was > 100 µM. For the same molecule, the TGI [19] was > 100 µM, the TGI [20] was > 100 µM and the TGI [21] was > 100 µM. For the same molecule, the TGI [22] was > 100 µM, the TGI [23] was > 100 µM and the TGI [24] was > 100 µM. The TGI [25] was > 100 µM, the TGI [26] was > 100 µM and the TGI [27] was > 100 µM. For the same molecule, the TGI [28] was > 100 µM, the TGI [29] was > 100 µM and the TGI [30] was > 100 µM. The TGI [31] was > 100 µM, the TGI [32] was > 100 µM and the TGI [33] was > 100 µM. For the same molecule, the TGI [34] was > 100 µM, the TGI [35] was > 100 µM and the TGI [36] was > 100 µM. The TGI [37] was > 100 µM, the TGI [38] was > 100 µM and the TGI [39] was > 100 µM. The TGI [40] was > 100 µM, the TGI [41] was > 100 µM and the TGI [42] was > 100 µM. For the same molecule, the TGI [43] was > 100 µM, the TGI [44] was > 100 µM and the TGI [45] was > 100 µM. For the same molecule, the TGI [46] was > 100 µM, the TGI [47] was > 100 µM and the TGI [48] was > 100 µM. The TGI [49] was > 100 µM, the TGI [50] was > 100 µM and the TGI [51] was > 100 µM. The TGI [52] was > 100 µM, the TGI [53] was > 100 µM and the TGI [54] was > 100 µM. The TGI [55] was > 100 µM.
In the case of CC(C)N(Cc1c(F)cccc1F)c1ccc(CO)c(Cl)c1, the GI50 [1] is reported as 18.3 µM, the TGI [1] is reported as 34.9 µM and the GI50 [2] is reported as 12.2 µM. For the same molecule, the TGI [2] was 27.3 µM, the GI50 [3] was 17.5 µM and the TGI [3] was 33.6 µM. For the same molecule, the GI50 [4] was 18.7 µM, the TGI [4] was 34.3 µM and the GI50 [5] was 17.3 µM. It also gave a TGI [5] of 34.6 µM, a GI50 [6] of 17.8 µM and a TGI [6] of 40.2 µM. The GI50 [7] was 3.14 µM, the TGI [7] was 25 µM and the GI50 [8] was 18.5 µM. The TGI [8] was 34.7 µM, the GI50 [9] was 19.5 µM and the TGI [9] was 46 µM. It also gave a GI50 [10] of 0.119 µM, a TGI [10] of 0.832 µM and a GI50 [11] of 17.7 µM. The TGI [11] was 40.8 µM, the GI50 [12] was 13.7 µM and the TGI [12] was 29.6 µM. For the same molecule, the GI50 [13] was 19.1 µM, the TGI [13] was > 52.3 µM and the GI50 [14] was 6.65 µM. For the same molecule, the TGI [14] was 24.7 µM, the GI50 [15] was 15.3 µM and the TGI [15] was 29.9 µM. It also gave a GI50 [16] of 1.02 µM, a TGI [16] of 3.02 µM and a GI50 [17] of 13 µM. It also gave a TGI [17] of 26.6 µM, a GI50 [18] of 19.1 µM and a TGI [18] of 37.7 µM. It also gave a GI50 [19] of 0.355 µM, a TGI [19] of 18.3 µM and a GI50 [21] of 15.8 µM. It also gave a TGI [21] of 33.1 µM, a GI50 [22] of 16.8 µM and a TGI [22] of 31.8 µM. The GI50 [23] was 0.134 µM, the TGI [23] was 2.63 µM and the GI50 [24] was 0.0655 µM. The TGI [24] was 13.6 µM, the GI50 [56] was 18 µM and the TGI [56] was 35.2 µM. For the same molecule, the GI50 [25] was 2.64 µM, the TGI [25] was 12.9 µM and the GI50 [26] was 19.4 µM. It also gave a TGI [26] of 46.6 µM, a GI50 [27] of 12.1 µM and a TGI [27] of 26.1 µM. It also gave a GI50 [28] of 0.529 µM, a TGI [28] of 27.5 µM and a GI50 [29] of 12.7 µM. It also gave a TGI [29] of 25.6 µM, a GI50 [30] of 2.06 µM and a TGI [30] of 13.8 µM. The GI50 [31] was 11.7 µM, the TGI [31] was 29.1 µM and the GI50 [32] was 0.157 µM. For the same molecule, the TGI [32] was 2.53 µM, the GI50 [33] was 0.171 µM and the TGI [33] was 0.565 µM. For the same molecule, the GI50 [34] was 3.92 µM, the TGI [34] was 34.5 µM and the GI50 [35] was 0.0326 µM. The TGI [35] was 0.145 µM, the GI50 [57] was 12.1 µM and the TGI [57] was 25.7 µM. It also gave a GI50 [36] of 10.9 µM, a TGI [36] of 27.9 µM and a GI50 [58] of 0.228 µM. It also gave a TGI [58] of 17.3 µM, a GI50 [37] of 0.0408 µM and a TGI [37] of 12.4 µM. It also gave a GI50 [38] of 0.354 µM, a TGI [38] of 17.9 µM and a GI50 [39] of 0.111 µM. The TGI [39] was 1.73 µM, the GI50 [40] was 0.0424 µM and the TGI [40] was 0.186 µM. The GI50 [41] was 15.3 µM, the TGI [41] was 35.8 µM and the GI50 [42] was 1.25 µM. The TGI [42] was 15 µM, the GI50 [43] was 1.63 µM and the TGI [43] was 20.6 µM. For the same molecule, the GI50 [44] was 2.62 µM, the TGI [44] was 17.5 µM and the GI50 [45] was 0.0582 µM. For the same molecule, the TGI [45] was 0.195 µM, the GI50 [46] was 14 µM and the TGI [46] was 32.4 µM. The GI50 [47] was 0.0748 µM, the TGI [47] was 0.398 µM and the GI50 [48] was 0.0488 µM. It also gave a TGI [48] of 0.148 µM, a GI50 [49] of 0.0502 µM and a TGI [49] of 0.216 µM. It also gave a GI50 [50] of 0.848 µM, a TGI [50] of 21.7 µM and a GI50 [51] of 13 µM. It also gave a TGI [51] of 26.6 µM, a GI50 [52] of 0.0702 µM and a TGI [52] of 0.253 µM. The GI50 [53] was 0.553 µM, the TGI [53] was 19.6 µM and the GI50 [54] was 0.643 µM. For the same molecule, the TGI [54] was 13.4 µM, the GI50 [55] was 0.0727 µM and the TGI [55] was 0.215 µM.
